This is an account of results in patent US20120094311A1, “GENE AND PROTEIN EXPRESSION PROFILES ASSOCIATED WITH THE THERAPEUTIC EFFICACY OF EGFR-TK INHIBITORS” (priority 2007, published 2012).

Structures are written as SMILES.

The experiment concerns tumor cells derived from NSCLC tumors of patients shown to be responsive to gefitinib. Briefly: Xenograft array: SCID mice bearing patient-derived NSCLC tumors treated with IRESSA. It counts as in vivo. The settings on record: SCID mice injected with patient-derived NSCLC tumor cells; injected with 200 mg/kg of IRESSA. As for the experimental part:
Positive expression was also confirmed using a Xenograft array. To make this array, SCID mice were injected with tumor cells derived from NSCLC tumors of patients shown to be responsive to gefitinib (IRESSA®), and tumors were allowed to grow. The mice then were injected with 200 mg/kg of IRESSA®, and the mice were monitored to observe responsiveness to the drug.

`COc1cc2ncnc(Nc3ccc(F)c(Cl)c3)c2cc1OCCCN1CCOCC1` [IRESSA, gefitinib]: the “tumors formed in the SCID mice after treatment” value was “reduced or eliminated”.
